The record followed here is ChEMBL document CHEMBL3286232, “The enone motif of (+)-grandifloracin is not essential for 'anti-austerity' antiproliferative activity” (Bioorg Med Chem Lett, 2014).

Each structure is given as a SMILES string.

Assay [1] has as its system HT-29. The assay is described as follows: Anti-austerity antiproliferative activity against nutrient-deprived human HT-29 cells after 72 hrs in presence of 0.5% serum. Type of assay: functional, cell-based. To be noted: HT-29, 72 h.
For assay [2], the system named is HT-29. The assay is described as follows: Anti-austerity antiproliferative activity against human HT-29 cells after 72 hrs in presence of 10 % serum. In kind it is cell-based. To be noted: HT-29, 72 h.
A short description of assay [3]: Anti-austerity antiproliferative activity against human PANC1 cells after 72 hrs in presence of 10 % serum. As to conditions: PANC-1, 72 h. Type of assay: cell-based.
Assay [4] in a line: Anti-austerity antiproliferative activity against nutrient-deprived human PANC1 cells after 72 hrs in presence of 0.5% serum. In kind it is functional, cell-based. To be noted: PANC-1, 72 h.

A word on the IC50: it is the concentration that inhibits the measured activity by half. For `O=C(OC[C@@]1(O)C(=O)C=C[C@H]2[C@@H]1[C@H]1C=C[C@@H]2C(=O)[C@]1(O)COC(=O)c1ccccc1)c1ccccc1`, the IC50 in the assay on HT-29 [1] is above 500 µM; in the assay on HT-29 [2] it was 109 µM; in assay [3], 123 µM; in assay [4], above 500 µM.

Consider `O=C(OC[C@@]1(O)C(=O)C=C[C@H]2[C@@H]1[C@H]1C=C[C@@H]2C(=O)[C@]1(O)COC(=O)c1ccc(Cl)cc1)c1ccc(Cl)cc1`, for which the IC50 with HT-29 [1] is 18 µM; in the assay on HT-29 [2], 39 µM; in assay [3] it was 84 µM; in assay [4], 77 µM.

Turning to `COc1ccc(C(=O)OC[C@@]2(O)C(=O)C=C[C@H]3[C@@H]2[C@H]2C=C[C@@H]3C(=O)[C@]2(O)COC(=O)c2ccc(OC)cc2)cc1`, the IC50 in the assay with HT-29 [1] was 22 µM; in the assay on HT-29 [2], 35 µM; in assay [3], 78 µM; in assay [4], 52 µM.

Take `O=C(OC[C@@]1(O)C(=O)CC[C@H]2[C@@H]1[C@H]1CC[C@@H]2C(=O)[C@]1(O)COC(=O)c1ccccc1)c1ccccc1`: the half-maximal inhibitory concentration (IC50) with HT-29 [1] worked out at 27 µM; with HT-29 [2] it was 39 µM; in assay [3] it was 81 µM; in assay [4] it was 86 µM.
